Measured values taken from patent publication US20180177734A1, “PHARMACEUTICAL FORMULATIONS COMPRISING TENOFOVIR AND EMTRICITABINE” (priority 2015, published 2018).
Read-outs that look alike come from different tables or passages of the source.

Conditions: 40° C./75% RH open, 60° C. closed

CC(C)OC(=O)[C@H](C)N[P@](=O)(CO[C@H](C)Cn1cnc2c(N)ncnc21)Oc1ccccc1 [tenofovir alafenamide hemifumarate]
rate of degradation of tenofovir alafenamide hemifumarate (in the presence of both emtricitabine and rilpivirine HCl): further increased | rate of degradation of tenofovir alafenamide hemifumarate (in the presence of emtricitabine): increased
